Experimental data: PubChem BioAssay AID1963861 (Molecular Pharmacology Branch, DTP, NCI, 2024)

Tested on: 885724-159-R-J1-PDC KRAS PDC multicell spheroid viability
Assay: Anticancer human tumor 885724-159-R-J1-PDC patient-derived pancreatic adenocarcinoma cell line growth inhibition [KRAS2]
Conditions: for IC50: curve of first compound; for viability, T/C: stronger effect = lower value
Outline: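 KRAS-mutant tumor cells were grown as spheroids with HUVEC endothelial cells and human MSCs as stroma. Targeted agents were tested alone and with KRAS pathway inhibitors. Doses started at or near clinical Cmax, or 10 microM, descending half-log.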

[1] = second compound 0.1 µM, first compound 0.0316 µM
[2] = second compound 0.1 µM, first compound 0.1 µM
[3] = second compound 0.1 µM, first compound 0.316 µM
[4] = second compound 0.1 µM, first compound 1 µM
[5] = second compound 0.1 µM, first compound 3.16 µM
[6] = second compound 0.1 µM, first compound 10 µM
[7] = second compound 0.316 µM, first compound 0.0316 µM
[8] = second compound 0.316 µM, first compound 0.1 µM
[9] = second compound 0.316 µM, first compound 0.316 µM
[10] = second compound 0.316 µM, first compound 1 µM
[11] = second compound 0.316 µM, first compound 3.16 µM
[12] = second compound 0.316 µM, first compound 10 µM
[13] = second compound 1 µM, first compound 0.0316 µM
[14] = second compound 1 µM, first compound 0.1 µM
[15] = second compound 1 µM, first compound 0.316 µM
[16] = second compound 1 µM, first compound 1 µM
[17] = second compound 1 µM, first compound 3.16 µM
[18] = second compound 1 µM, first compound 10 µM
[19] = second compound 3.16 µM, first compound 0.0316 µM
[20] = second compound 3.16 µM, first compound 0.1 µM
[21] = second compound 3.16 µM, first compound 0.316 µM
[22] = second compound 3.16 µM, first compound 1 µM
[23] = second compound 3.16 µM, first compound 3.16 µM
[24] = second compound 3.16 µM, first compound 10 µM
[25] = second compound 10 µM, first compound 0.0316 µM
[26] = second compound 10 µM, first compound 0.1 µM
[27] = second compound 10 µM, first compound 0.316 µM
[28] = second compound 10 µM, first compound 1 µM
[29] = second compound 10 µM, first compound 3.16 µM
[30] = second compound 10 µM, first compound 10 µM
[31] = second compound 0.1 µM, first compound 0.00316 µM
[32] = second compound 0.1 µM, first compound 0.01 µM
[33] = second compound 0.316 µM, first compound 0.00316 µM
[34] = second compound 0.316 µM, first compound 0.01 µM
[35] = second compound 1 µM, first compound 0.00316 µM
[36] = second compound 1 µM, first compound 0.01 µM
[37] = second compound 3.16 µM, first compound 0.00316 µM
[38] = second compound 3.16 µM, first compound 0.01 µM
[39] = second compound 10 µM, first compound 0.00316 µM
[40] = second compound 10 µM, first compound 0.01 µM
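Note: spheroids exposed to agents for 7 days before readout.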

CC(C)NCC(C(=O)N1CCN(c2ncnc3c2C(C)CC3O)CC1)c1ccc(Cl)cc1 (stereo not given) + CNCc1ccccc1-c1csc(C(C)Nc2nc(C)nc3cc(OC)c(OC)cc23)c1
IC50 (second compound 0.1 µM): > 10 µM
IC50 (second compound 0.316 µM): > 10 µM
IC50 (second compound 1 µM): 4.19 µM
IC50 (second compound 3.16 µM): < 0.0316 µM
IC50 (second compound 10 µM): < 0.0316 µM
viability, T/C [1]: 87.4%
viability, T/C [2]: 82.9%
viability, T/C [3]: 76%
viability, T/C [4]: 70.8%
viability, T/C [5]: 76.8%
viability, T/C [6]: 57.1%
viability, T/C [7]: 87.4%
viability, T/C [8]: 77.3%
viability, T/C [9]: 67.7%
viability, T/C [10]: 72.7%
viability, T/C [11]: 78.2%
viability, T/C [12]: 53.1%
viability, T/C [13]: 94%
viability, T/C [14]: 76.9%
viability, T/C [15]: 64.9%
viability, T/C [16]: 66.3%
viability, T/C [17]: 68.8%
viability, T/C [18]: 26.3%
viability, T/C [19]: 1.32%
viability, T/C [20]: 0.9%
viability, T/C [21]: 1.56%
viability, T/C [22]: 0.7%
viability, T/C [23]: 0.43%
viability, T/C [24]: 0.59%
viability, T/C [25]: 0.17%
viability, T/C [26]: 0.16%
viability, T/C [27]: 0.17%
viability, T/C [28]: 0.31%
viability, T/C [29]: 0.16%
viability, T/C [30]: 0.23%

CCN1CCN(Cc2ccc(Nc3ncc(F)c(-c4cc(F)c5nc(C)n(C(C)C)c5c4)n3)nc2)CC1 + CNCc1ccccc1-c1csc(C(C)Nc2nc(C)nc3cc(OC)c(OC)cc23)c1
IC50 (second compound 0.1 µM): > 1 µM
IC50 (second compound 0.316 µM): > 1 µM
IC50 (second compound 1 µM): > 1 µM
IC50 (second compound 3.16 µM): < 0.00316 µM
IC50 (second compound 10 µM): < 0.00316 µM
viability, T/C [31]: 110%
viability, T/C [32]: 100%
viability, T/C [1]: 92.2%
viability, T/C [2]: 86.8%
viability, T/C [3]: 87.2%
viability, T/C [4]: 96.9%
viability, T/C [33]: 106%
viability, T/C [34]: 94.8%
viability, T/C [7]: 78.2%
viability, T/C [8]: 83.4%
viability, T/C [9]: 94%
viability, T/C [10]: 90.9%
viability, T/C [35]: 95%
viability, T/C [36]: 96.3%
viability, T/C [13]: 76.6%
viability, T/C [14]: 78.3%
viability, T/C [15]: 74.8%
viability, T/C [16]: 71.2%
viability, T/C [37]: 0.67%
viability, T/C [38]: 1.81%
viability, T/C [19]: 0.79%
viability, T/C [20]: 4.1%
viability, T/C [21]: 0.68%
viability, T/C [22]: 0.56%
viability, T/C [39]: 0.19%
viability, T/C [40]: 0.32%
viability, T/C [25]: 0.2%
viability, T/C [26]: 0.19%
viability, T/C [27]: 0.19%
viability, T/C [28]: 0.28%

CCNC(=O)CC1N=C(c2ccc(Cl)cc2)c2cc(OC)ccc2-n2c(C)nnc21 (stereo not given) + CNCc1ccccc1-c1csc(C(C)Nc2nc(C)nc3cc(OC)c(OC)cc23)c1
IC50 (second compound 0.1 µM): > 10 µM
IC50 (second compound 0.316 µM): > 10 µM
IC50 (second compound 1 µM): > 10 µM
IC50 (second compound 3.16 µM): < 0.0316 µM
IC50 (second compound 10 µM): < 0.0316 µM
viability, T/C [1]: 122%
viability, T/C [2]: 114%
viability, T/C [3]: 77.3%
viability, T/C [4]: 63.2%
viability, T/C [5]: 53.7%
viability, T/C [6]: 52.5%
viability, T/C [7]: 118%
viability, T/C [8]: 113%
viability, T/C [9]: 81.9%
viability, T/C [10]: 61.8%
viability, T/C [11]: 55.1%
viability, T/C [12]: 48.3%
viability, T/C [13]: 110%
viability, T/C [14]: 116%
viability, T/C [15]: 79.1%
viability, T/C [16]: 59.7%
viability, T/C [17]: 52.6%
viability, T/C [18]: 49.7%
viability, T/C [19]: 1.45%
viability, T/C [20]: 11.5%
viability, T/C [21]: 1.37%
viability, T/C [22]: 1.56%
viability, T/C [23]: 0.16%
viability, T/C [24]: 0.43%
viability, T/C [25]: 0.33%
viability, T/C [26]: 0.2%
viability, T/C [27]: 0.25%
viability, T/C [28]: 0.16%
viability, T/C [29]: 0.18%
viability, T/C [30]: 0.26%

Cn1ncnc1[C@H]1c2n[nH]c(=O)c3cc(F)cc(c23)N[C@@H]1c1ccc(F)cc1 + CNCc1ccccc1-c1csc(C(C)Nc2nc(C)nc3cc(OC)c(OC)cc23)c1
IC50 (second compound 0.1 µM): > 0.1 µM
IC50 (second compound 0.316 µM): > 0.1 µM
IC50 (second compound 1 µM): > 0.1 µM
IC50 (second compound 3.16 µM): < 0.000316 µM
IC50 (second compound 10 µM): < 0.000316 µM
viability, T/C (second compound 0.1 µM, first compound 0.000316 µM): 100%
viability, T/C (second compound 0.1 µM, first compound 0.001 µM): 104%
viability, T/C [31]: 88.8%
viability, T/C [32]: 99.5%
viability, T/C [1]: 80.2%
viability, T/C [2]: 80%
viability, T/C (second compound 0.316 µM, first compound 0.000316 µM): 92.6%
viability, T/C (second compound 0.316 µM, first compound 0.001 µM): 89.2%
viability, T/C [33]: 84.1%
viability, T/C [34]: 98%
viability, T/C [7]: 77.4%
viability, T/C [8]: 71.3%
viability, T/C (second compound 1 µM, first compound 0.000316 µM): 82.5%
viability, T/C (second compound 1 µM, first compound 0.001 µM): 83.4%
viability, T/C [35]: 91.2%
viability, T/C [36]: 78.5%
viability, T/C [13]: 74.2%
viability, T/C [14]: 76.9%
viability, T/C (second compound 3.16 µM, first compound 0.000316 µM): 1.47%
viability, T/C (second compound 3.16 µM, first compound 0.001 µM): 1.04%
viability, T/C [37]: 0.71%
viability, T/C [38]: 0.73%
viability, T/C [19]: 0.71%
viability, T/C [20]: 0.75%
viability, T/C (second compound 10 µM, first compound 0.000316 µM): 0.51%
viability, T/C (second compound 10 µM, first compound 0.001 µM): 0.45%
viability, T/C [39]: 0.13%
viability, T/C [40]: 0.3%
viability, T/C [25]: 0.22%
viability, T/C [26]: 0.48%
